# According to the SangsterLogP compilation:
# Experiment: method code SF, from DOI: 10.1016/j.ejps.2012.10.019, PMID: 23131797
# Settings: pH 2.0
row,Compound,logD
1,CCN(C(=O)C(=O)c1cn(CC(=O)N2CCOCC2)c2ccccc12)c1ccccc1,2.05
2,Cc1[nH]c2ccccc2c1C1=CN2CCS(=O)(=O)N=C2S1,1.56

# The remaining lines, values ahead:
row,logD,Compound
1,2.26,CC(C)=CC(=O)OCC(=O)Nc1ccc(S(=O)(=O)N(C)C)cc1
2,3.28,Cc1ccc(C(=O)NCCc2ccc3c(c2)OCCO3)cc1[N+](=O)[O-]
3,3.86,CC(=O)c1sc(SCCOc2ccccc2)nc1C
4,3.2,Cc1c(NC(=O)CC(c2ccccc2)c2ccccc2)cccc1-n1cnnn1

# Same assay, conditions: pH 5.0
row,Compound,logD
1,CC(C)N(Cc1nc(-c2ccccc2)no1)C(=O)c1ccccc1CCc1ccccc1,5.98
2,COc1cccc(OCCn2c(=O)c3cc4c(=O)n(CCOc5cccc(OC)c5)c(=O)c4cc3c2=O)c1,5.43
3,Cc1ccc(-n2c(=O)c3cc4c(=O)n(-c5ccc(C)c(C)c5)c(=O)c4cc3c2=O)cc1C,4.83
4,CCCCOc1ccc(C(=O)N(CCN2C(=O)c3ccccc3C2=O)c2cccc(OC)c2)cc1,5.35
5,COCc1cc(OC(=O)N(C)C)nc(SCC(=O)C(C)(C)C)n1,3.33
6,Cc1cc(C(=O)COC(=O)c2oc3ccccc3c2COC(C)C)c(C)n1-c1c(C)n(C)n(-c2ccccc2)c1=O,5.39
7,CCc1nc2sc(C#N)c(N)n2c(=O)c1C#N,2.09
8,O=P(OCC(F)(F)F)(OCC(F)(F)F)N1CCOCC1,2.69
9,CCn1cc(-c2nc3c4c(C)c(C)sc4ncn3n2)cn1,3.77
10,Cn1ncc(Br)c1C(=O)N1CCCCCC1,2.63
11,Cc1sc2nc(SCC(=O)N3CCCC3)n(C3CCCCC3)c(=O)c2c1C,5.16
12,COC(=O)c1cc(C(=O)OCC(=O)c2[nH]c(C)c(C(C)=O)c2C)cc([N+](=O)[O-])c1,3.82
13,CC1=CC(C)C(CO)(CO)C(C)C1 (stereo unspecified),2.93

# Now from value to compound:
row,logD,Compound
1,4.68,O=C(COC(=O)c1cccc(N2C(=O)c3ccccc3C2=O)c1)c1ccc(F)cc1
2,3.27,CCn1cc(CN(C)C(=O)c2cc3cc(Br)ccc3oc2=O)c(C)n1
3,4.08,COC(=O)c1cnn2c(C(F)(F)F)cc(-c3cc(OC)c(OC)c(OC)c3)nc12
4,4.86,N#Cc1nc2c(S(=O)(=O)c3ccccc3)c(N)n(Cc3ccc(F)cc3)c2nc1C#N
5,3.04,CCCCC(=O)Nc1ccc(F)c([N+](=O)[O-])c1
6,4.77,COC(=O)c1ccc(-n2c(C)cc(C(=O)COc3cccc(-n4cnnn4)c3)c2C)cc1
7,2.71,CC(C)(C)NC(=S)Nc1ccc(F)cc1
8,3.44,COc1cc(C(=O)Nc2cccc(C#N)c2)cc(OC)c1OC
9,4.64,COC(=O)c1ccc(OC(=O)c2cc(OC)cc(OC)c2)cc1
10,3.61,COc1cc(C(=O)Nc2ccccc2C(C)(C)C)cc(OC)c1OC
11,2.76,COc1ccc(OCC(=O)N2CCN(C(=O)c3ccco3)CC2)cc1
12,3.45,COc1ccc2c(C)c(C)c(=O)oc2c1C
13,4.04,O=C(CSc1nc2ccccc2s1)c1cccs1
14,3.55,O=C1c2ccccc2C(=O)N1c1ccccc1C(F)(F)F
15,6.06,FC(F)(F)c1nc(-c2ccc(-c3noc(C(F)(F)F)n3)cc2)no1
16,4,COc1ccc(CCNC(=O)CSc2nc3c(c(=O)n(C)c(=O)n3C)n2Cc2ccccc2F)cc1OC
17,4.89,COc1cc(C(=O)c2ccc(F)cc2)cc(C(=O)c2ccc(F)cc2)c1
18,5.09,CCOC(=O)c1ccc(NCc2c(C)[nH]c(C(=O)OCC)c2C)cc1
19,2,COCCCNC(=O)c1ccccc1C(F)(F)F
20,4.52,CCc1cc(=O)oc2c(C)c(OCC(=O)OC(C)(C)C)ccc12
21,5.87,Cc1ccc(C)c(S(=O)(=O)N(C)c2ccc(OC(=O)c3ccc4c(c3)OCO4)cc2)c1
22,5.08,Cc1ccc(SCC(=O)NCc2cccc(CNC(=O)CSc3ccc(C)cc3)c2)cc1
23,4.15,COc1ccc(C)cc1-n1nnnc1SCC(=O)Nc1cc(C(N)=O)cc(C(N)=O)c1
24,4.22,CCc1ccc(OCC(=O)NCCc2ccc(OC)c(OC)c2)cc1
25,6.72,CCOC(=O)C1=C(Nc2ccc(OC(=O)Nc3ccc(OC(F)(F)F)cc3)cc2)C(=O)N(C(C)(C)C)C1
26,2.15,CC(=O)c1cc2ccccc2o1
27,3.57,CC(=O)Nc1cccc(C(=O)OCC(=O)c2c(N)n(C)c(=O)n(C)c2=O)c1
28,5.14,CN(Cc1ccccc1)S(=O)(=O)c1ccc(NC(=O)Cc2ccc(F)cc2)cc1
29,4,COc1c(Cl)ccc(Cl)c1C(=O)Nc1ccc(C)cc1C
30,4.63,CC(Sc1nc2ccccc2c(=O)n1-c1ccc(F)cc1)C(=O)NCc1ccc2c(c1)OCO2 (stereo unspecified)

# Same assay, conditions: pH 6.5
row,Compound,logD
1,O=C(c1cccc([N+](=O)[O-])c1)N(Cc1ccccc1F)N1C(=O)c2ccccc2C1=O,4.47
2,N#CCOC(=O)c1ccccc1SCC(=O)N1CCCC1,2.57
3,O=C(CC1Nc2ccccc2NC1=O)Nc1ccccc1NC(=O)CC1Nc2ccccc2NC1=O (stereo unspecified),3.42
4,CC(=O)N1CC(=O)N(CC(=O)N(Cc2ccccc2)c2nc(-c3ccccc3)cs2)C1=S,4.43

# More lines, now with the values ahead:
row,logD,Compound
1,4.41,CN1C(=CC=CC(=O)C(F)(F)F)C(C)(C)c2ccccc21
2,5.85,O=C(Nc1ccc(N2CCN(C(=O)c3ccco3)CC2)c(Cl)c1)c1c(F)c(F)c(F)c(F)c1F
3,5.75,COC(=O)c1c(NC(NC(=O)c2cccnc2)(C(F)(F)F)C(F)(F)F)sc2c1CCCCC2
4,6.09,COC(=O)c1cccc(NC(=O)c2cc(C(=O)Nc3cccc(C(=O)OC)c3)cc(N3C(=O)c4ccccc4C3=O)c2)c1

# Same assay, conditions: pH 7.0
row,logD,Compound
1,0.86,NNc1c(F)c(F)nc(F)c1F

# Same assay, conditions: pH 7.3
row,Compound,logD
1,O=C(c1cccnc1)N1CCN(S(=O)(=O)c2ccccc2)CC1,2.3
2,Cc1ccnc(N(C(=O)c2cc3c(s2)CCCC3)C(=O)c2cc3c(s2)CCCC3)c1,5.76

# More lines, now with the values ahead:
row,logD,Compound
1,4.74,CCN1C(=O)c2cccc3c(S(=O)(=O)N(C(=O)c4cccnc4)c4ccc(OC)cc4)ccc1c23
2,5.3,C=C(c1ccc(N(C)C)cc1)c1ccc(N(C)C)cc1
3,4.09,CC(C)N(C(=O)CSc1nnc(NCc2ccccc2)s1)C(C)C
4,3.68,Cn1c(SCc2cc(F)cc(F)c2)nnc1-c1ccc2nonc2c1
5,1.85,Nn1c(COc2ccccc2)nnc1SC(F)F

# Same assay, conditions: pH 8.0
row,logD,Compound
1,1.74,CCOC(=O)c1nc(N)sc1C

# Same assay, conditions: pH 10.0
row,logD,Compound
1,4.17,c1nc(NC2CCCC2)c2c3c(sc2n1)CCCC3
2,1.56,Nc1nc2nc3nc(N)sc3cc2s1
3,3.24,CC1(C)CC(=O)C2=C(C1)OC(N)=C(C#N)C21CCC2(CC1)OCCO2
4,2.17,Cn1c(N)c(C(=O)COC(=O)C2CC2)c(=O)n(C)c1=O

# Same assay, conditions: pH 10.5
row,Compound,logD
1,COC(=O)COc1cc2occ(-c3csc(C)n3)c(=O)c2cc1C,3.9
2,C=C(C)CSc1nnc(-c2cccc(S(=O)(=O)N3CCOCC3)c2)n1C1CCCC1,4.73
3,CCn1cc(C2C3=C(CC(C)(C)CC3=O)N(c3ccc(C)cc3)C3=C2C(=O)CC(C)(C)C3)c(C)n1,5.35
4,Cn1c(=O)c(C(=O)CN2CCSc3ccccc32)c(N)n(Cc2ccccc2)c1=O,4.71
5,CCOc1cc(-c2nnc(-c3ccco3)o2)cc(OCC)c1OCC,3.96
6,CCOC(=O)c1sc(NCCNc2nc(C)c(C(=O)OCC)s2)nc1C,4.66

# Next, values leading:
row,logD,Compound
1,3.45,COCCn1c(C)cc(C(=O)CSc2nnc3[nH]c4ccccc4n23)c1C
2,4.92,O=C(c1cc2ccccc2s1)N1CCCN(c2ccc(C(F)(F)F)cn2)CC1
3,6.58,CC(C)(C)c1cc(-c2nc(-c3ccc(C(F)(F)F)cn3)no2)n(Cc2ccccc2)n1
4,5.86,CCn1c(SCc2ccccc2F)nc2sc(C)c(C)c2c1=O
5,3.14,CCNc1nc(NC(C)C)nc(Oc2ccc(OCC)nn2)n1
